One series has as its system T. b. brucei 427. As to the kind of experiment: Reversibility of trypanocidal effects (wash-out). The format is cell-based. As to conditions: at about 5 times the IC50. As for the experimental part:
To establish the time and concentration required to cause persistent or irreversible effects by oxaboroles, T. b. brucei parasites were assessed for their ability to recover from transient exposure to test compounds. Trypanosomes were seeded in clear 96-well V-bottom plates at a density of 1×10^5 parasites per well and incubated with serially diluted test compound (from 10 to 0.02 µg/mL). One plate was prepared for each time point. At the designated time, a plate was removed from the incubator and spun at 2,600 g for 5 min to sediment the parasites. The supernatant was aspirated and 100 µL of warmed HMI-9 media was added to each well. The wash was repeated twice more. The parasites were resuspended in 100 µL of warmed media and 20 µL of this suspension was added to 80 µL of HMI-9 media in triplicate plates. Following a 72 h incubation, resazurin was added and trypanocidal activity determined as described for the in vitro sensitivity assay.

The nature of series [1]: Metabolic stability in liver microsomal and S9 fractions. The format is in vitro ADME, rodents, cynomolgus monkey and humans. As to conditions: CD-1 (mouse), Sprague-Dawley (rat), beagle (dog), cynomolgus monkey, human, liver microsomes and liver S9 fractions, all species. As for the experimental part:
Metabolic stability was evaluated using mixed gender CD-1 mouse or human liver microsomal fractions (XenoTech, Lenexa, KS). Compounds (1 µM) were incubated with microsomes (1.05 mg/mL protein) for 0, 10, 15 and 30 min at 37°C in an oxygen and humidity enriched environment in the presence of an NADPH-regenerating system. Each compound was also incubated, under the same conditions, with CD-1 mouse, Sprague-Dawley rat, beagle dog, cynomolgus monkey, and human liver S9 sub-cellular fractions (2 mg/mL protein)[23] for 0, 15, 30 and 60 min. At the end of each incubation period, the reactions were quenched with 3 volumes of ice-cold methanol. Supernatants from the incubation mixtures were analyzed for parent compound by LC-MS/MS. Metabolic competencies of microsomal and S9 fractions were confirmed using control compounds 7-ethoxycoumarin, propranolol and verapamil. Intrinsic clearance (CLint) and half-life (t½) values were determined for each compound.

Series [2] can be described thus: Brain tissue binding by rapid equilibrium dialysis. The format is in vitro ADME. As to conditions: mouse brain tissue; independent of concentration. As for the experimental part:
Binding to human or mouse plasma proteins or mouse brain homogenate was determined by rapid equilibrium dialysis (RED) (Pierce, Rockford, IL) using a 48-well plate-based format according to the manufacturer's instructions. Briefly, test compound at the required concentrations was added to fresh human or mouse plasma (Bioreclamation, Liverpool, NY) or freshly prepared mouse brain homogenate. Duplicate aliquots of each sample were transferred into the sample chambers of the RED devices, and dialysis buffer (BupH PBS) was added to the buffer chambers. The plates were sealed and incubated at 37°C for 4 h. After dialysis, samples collected from the buffer and tissue chambers were treated with ice-cold methanol (3 volumes for plasma, 4 volumes for brain) to precipitate proteins. The treated samples were centrifuged for 10 min at 3×10^3 g at 15°C. The supernatants were assayed for test compound by LC-MS/MS. Calibration standards and quality control samples were prepared in matched matrix and assayed with samples. Values for unbound and bound fractions and mass balance were calculated. Concordance of binding for each batch of plasma was confirmed by assay of warfarin, imipramine and carbamezapine. Acceptance criterion for mass balance was 70–120%.
For orientation: In equilibrium dialysis free small molecules cross a membrane that holds back macromolecules.

Series [3] can be described thus: Pharmacokinetics in uninfected rats. The format is in vivo, rat. As to conditions: male, Sprague-Dawley, rat. As for the experimental part:
The blood distribution, CNS disposition and pharmacokinetics of SCYX-7158 were evaluated in infected or non-infected rodents following intravenous or oral administration of compounds. Pharmacokinetics and bioavailability of SCYX-7158 were also evaluated in non-infected beagle dogs and cynomolgus monkeys. In-life phases of non-infected rodent studies were performed at Vivisource (Waltham, MA); studies in non-naïve cynomolgus monkeys were performed by SNBL USA (Everett, WA). Male CD-1 mice (∼25 g), male Sprague-Dawley rats (∼225 g), or male cynomolgus monkeys (∼3–5 kg) were administered test article by either bolus intravenous injection (IV) or oral gavage. Animals in the IV groups received a single 2 mg/kg IV dose. Animals received oral doses of test articles as either single or twice daily doses ranging from 8 mg/kg to 50 mg/kg. All doses were administered as clear colorless solutions in either 50% (v/v) PEG 400: 20% (v/v) ethanol: 30% (v/v) carboxymethylcellulose (0.5% w/v in sterile water for injection) or 2% (v/v) ethanol: 5% (w/v) dextrose in sterile water for injection. […] For pharmacokinetic analysis, blood samples were collected from mice via cardiac puncture under terminal anaesthesia. Serial blood samples were collected from rats via a vascular access port located in the lateral saphenous vein. Mice and rats were euthanized in a CO2 chamber before collection of terminal blood samples or brain tissue. Blood samples were collected into polypropylene tubes containing K2EDTA anticoagulant and stored on ice until centrifuged for the preparation of plasma. Plasma was stored at −70°C. Whole brains were collected following decapitation, blotted dry, placed into polypropylene containers and then immediately frozen at approximately −70°C. CSF was collected from rats via cisterna magna puncture, placed in sterile polypropylene tubes, and stored at approximately −70°C. […] Treated samples were gently mixed at room temperature for 10 min, and then centrifuged at approximately 3000×g for 15 min at 15°C. The supernatants were transferred to 96-well plates or HPLC vials for analysis by LC-MS/MS. Pharmacokinetic parameters were calculated from composite mean plasma or tissue data using non-compartmental (oral and intravenous routes) and bi-exponential (intravenous route) analyses in Microsoft Excel.

Series [4] is described as follows: Steady-state pharmacokinetics in T. brucei-infected mice. The format is in vivo, mouse. As to conditions: for AUC(0-inf) / Cmax: mouse; for AUC(0-inf): read-out: AUC0-inf in brain tissue. As for the experimental part: The blood distribution, CNS disposition and pharmacokinetics of SCYX-7158 were evaluated in infected or non-infected rodents following intravenous or oral administration of compounds. Pharmacokinetics and bioavailability of SCYX-7158 were also evaluated in non-infected beagle dogs and cynomolgus monkeys. In-life phases of non-infected rodent studies were performed at Vivisource (Waltham, MA); studies in non-naïve cynomolgus monkeys were performed by SNBL USA (Everett, WA).
Samples of plasma (25 µL) and CSF (10 µL) were treated with 3 volumes of ice-cold methanol (containing 25 ng/mL of 2-chloro-4-fluoro-N-(1-hydroxy-1,3-dihyrobenzo[c][1], [2]oxaborol-6-yl)benzamide or 25 ng/mL d6-SCYX-7158 as an internal standard) to precipitate proteins. Treated samples were gently mixed at room temperature for 10 min, and then centrifuged at approximately 3000×g for 15 min at 15°C. The supernatants were transferred to 96-well plates or HPLC vials for analysis by LC-MS/MS.
Pharmacokinetic parameters were calculated from composite mean plasma or tissue data using non-compartmental (oral and intravenous routes) and bi-exponential (intravenous route) analyses in Microsoft Excel.

What is called half-life is the time in which the quantity being followed falls by half. Low readings indicate rapid decline, high ones slow decline. The term CL/F denotes the apparent clearance, not corrected for the fraction that reaches the circulation. In general, Cmax refers to the highest concentration seen after dosing. By Tmax is commonly meant the time at which the peak concentration occurs.

Like-named read-outs stand apart in the source and are kept apart here.

For the molecule `CC1(C)OB(O)c2cc(NC(=O)c3ccc(F)cc3C(F)(F)F)ccc21` [SCYX-7158], in the series on T. b. brucei 427, the “exposure time sufficient to produce irreversible effects on trypanosome survival” value lay within 10 to 12 h. This molecule came in with a half-life at 1 µM in series [1] greater than 5.83 h. Also, the microsomal CLint at 1 µM in series [1] (read-out: intrinsic clearance) was less than 5 µL/min/mg. In series [2], the fubrain was roughly 5%. Moreover, the Kp in series [3] (brain/plasma, 25 mg/kg oral, read-out: brain to plasma AUC0–24 h ratio) was 0.44. In series [3] (plasma, 25 mg/kg oral), the apparent clearance CL/F is 1.53 mL/min/kg. The peak concentration (Cmax) in series [3] (25 mg/kg oral (nominal), plasma, read-out: Cmax) stood at 18200 ng/mL; in series [3] (25 mg/kg oral, CSF, read-out: Cmax in the CSF), 1080 ng/mL; in series [3] (25 mg/kg oral, brain, read-out: Cmax in the brain), 8500 ng/mL; in series [3] (oral dose of 10 mg/kg SCYX-7158, plasma, read-out: Cmax), 14300 ng/mL; in series [4] (Swiss Webster, brain, 12.5 mg/kg oral, 7 daily doses, infected mice, read-out: Cmax in brain tissue), 6540 ng/mL; in series [4] (Swiss Webster, brain, 25 mg/kg oral, 7 daily doses, infected mice, read-out: Cmax in brain tissue), 12000 ng/mL. In addition, the highest concentration (Cmax) in series [4] (plasma, 25 mg/kg doses, read-out: plasma Cmax at steady-state) was roughly 15000 ng/mL. In addition, the AUC(0-t) in series [3] (25 mg/kg oral, CSF, read-out: AUC0–24 h in the CSF) stood at 14600 ng·h/mL; in series [3] (25 mg/kg oral, brain, read-out: AUC0–24 h in the brain), 129000 ng·h/mL; in series [3] (25 mg/kg oral, plasma, read-out: AUC0–24 h) it was 291000 ng·h/mL. For the same molecule, in series [3] (25 mg/kg oral, plasma), the Tmax stood at 8 h. For the same molecule, the “time brain concentrations maintained at or above the MIC (0.6 µg/mL)” value in series [4] (25 mg/kg dose) was roughly 24 h. The AUC(0-inf) in series [4] (Swiss Webster, brain, 12.5 mg/kg oral, 7 daily doses, infected mice) turned out to be 34200 ng·h/mL; in series [4] (Swiss Webster, brain, 25 mg/kg oral, 7 daily doses, infected mice) it was 81500 ng·h/mL.

These data come from paper PMC3125149, “SCYX-7158, an Orally-Active Benzoxaborole for the Treatment of Stage 2 Human African Trypanosomiasis” (PLoS Neglected Tropical Diseases, 2011).
